In one data set the target is T1, BACE1 (Homo sapiens, UniProt P56817).
T1 construct: purchased Sino Biological, Beijing, China
The experiment in a line: β-Secretase (BACE1) inhibition assay (FRET). The class given is biochemical. The conditions noted are these: at a concentration of 400 µM; mean ± SEM, n = 3. How it is done: All ascorbic derivatives (2a–2c and 5a–5c), at a concentration of 400 µM, were evaluated for β-secretase inhibitory activities by using the FRET assay. Briefly, the reaction composing 30 µL of 0.01 unit/µL BACE1 enzyme stock solution, 20 µL of 5% DMSO of test compound, 30 µL of sodium acetate buffer (pH 4.5), and 20 µL of 125 µM β-secretase substrate IV (Calbiochem®, San Diego, CA, USA) was incubated at 37 °C for 30 min. Fluorescence was then measured at Ex = 380 nm and Em = 510 nm using a SpectraMax Gemini EM™, San Jose, CA, USA [26, 61]. β-secretase inhibitor I (Anaspec®, Fremont, CA, USA) was used as a positive control, at a concentration of 100 µM. The experiments were performed in triplicate. For the compounds exerting inhibitory activities more than 20%, an IC50 value was further determined.

Another data set concerns the target T2, amyloid-β (1-42) peptide (Homo sapiens, UniProt P05067).
T2 construct: 9 µL of 25 μM working solution of amyloid-β (1-42) peptide; purchased Anaspec, Fremont, CA, USA
The data set can be described thus: Amyloid aggregation inhibition assay (ThT). It counts as biochemical. How it is done: The ascorbic derivatives ware evaluated for activities of amyloid β aggregation inhibition at a concentration of 400 µM. Briefly, in each well of transparent plate, 9 µL of 25 μM working solution of amyloid-β (1-42) peptide and 1 µL of test compound were gently mixed and then incubated in the dark at 37 °C for 48 h. After the incubation, 200 µL of 5 µM ThT (Sigma®, Saint Louis, MO, USA) in 50 mM Tris buffer (pH 7.4) was added to each well. Fluorescence was then measured at Ex = 446 nm and Em = 480 nm using a SpectraMax Gemini EM™, San Jose, CA, USA [26, 62]. Curcumin was used as a positive control, at a concentration of 100 µM.

The subject of data set [1] is P19-derived neurons. The experiment in a line: Neuroprotective assay, serum-deprivation-induced oxidative stress (XTT). It counts as cell-based. The conditions noted are these: 1 nM, p > 0.05. How it is done: (§1) P19 cells were grown in alpha minimal essential medium (α-MEM) supplemented with 7.5% newborn calf serum (NCS), 2.5% fetal bovine serum (FBS), and 1% antibiotics–antimycotic solution in a 5% CO2 humidified atmosphere at 37 °C. Cells in monolayer cultures were maintained in exponential growth by subculturing every two days.
Exponentially grown cultures were trypsinized and dissociated into single cells. P19 cells (2 × 10^6 cells/mL) were then suspended in 10 mL α-MEM supplemented with 5% FBS, 1% antibiotics–antimycotic solution, and 0.5 µM all transretinoic acid (RA) and seeded onto a 100-mm bacteriological culture dish. The cells formed large aggregates in suspension. After four days of RA treatment, the aggregates were dissociated by 5-mL glass measuring pipette and replated on poly-L-lysine-precoated multiwell plates (the multiwell plates were coated with 50 µg/mL poly-L-lysine, dissolved in PBS overnight, and sterilized under UV light for 30 min) at 7 × 10^4 cells/mL (150 µL/well in 96-well plate) in α-MEM supplemented with 10% FBS and 1% antibiotics–antimycotic solution and incubated for 24 h. […]
The assay was carried out with P19-derived neurons cultured in a 96-well plate by using the serum-deprivation method. […] Data were expressed as mean ± SEM (n = 3, each n was run in triplicate), with the medium as a control, representing 100% cell viability. […]
On the technique in general: Tetrazolium assays rely on reduction of a dye to a coloured formazan, in cell work by metabolically active cells.

The nature of data set [2]: Antioxidant activity assay (DPPH). How it is done: […] The reaction was a mixture of 70 µL of DPPH solution (500 µM in 80% methanol), 10 µL of 80% methanol, and 20 µL of test compound. The reaction was incubated at room temperature in the dark for 30 min. The absorbance was then measured at 517 nm using Infinite 200 Pro™ (Tecan). Ascorbic acid was used as a positive control.
(Loss of DPPH colour is used to gauge radical scavenging.)

Data set [3] deals with P19-derived neurons. The experiment in a line: Viability assay (XTT) on P19-derived neurons. The conditions noted are these: 18 h, nontoxic condition, versus 0.5% DMSO, derivatives at 1 nM. It counts as cell-based. How it is done: as §1
Exponentially grown cultures were trypsinized and dissociated into single cells. P19 cells (2 × 10^6 cells/mL) were then suspended in 10 mL α-MEM supplemented with 5% FBS, 1% antibiotics–antimycotic solution, and 0.5 µM all transretinoic acid (RA) and seeded onto a 100-mm bacteriological culture dish. The cells formed large aggregates in suspension. After four days of RA treatment, the aggregates were dissociated by 5-mL glass measuring pipette and replated on poly-L-lysine-precoated multiwell plates (the multiwell plates were coated with 50 µg/mL poly-L-lysine, dissolved in PBS overnight, and sterilized under UV light for 30 min) at 7 × 10^4 cells/mL (150 µL/well in 96-well plate) in α-MEM supplemented with 10% FBS and 1% antibiotics–antimycotic solution and incubated for 24 h. Cytosine-1-β-D-arabinoside or Ara-C (10 µM) was added at day 1 after plating, and the medium was changed every two to three days. The differentiated neuronal cells, P19-derived neurons, were used after day 14 of the differentiation process.
The assay was carried out on P19-derived neurons cultured in a 96-well plate. After 14 days of the differentiation process, the α-MEM, supplemented with 10% FBS, 10 μM Ara-C, and 1% antibiotics–antimycotic solution, was removed and DMSO solutions of the sample, diluted with α-MEM supplemented with 10% FBS and 1% antibiotics–antimycotic solution in the presence of 10 μM Ara-C, were added to produce the concentrations of 10,000, 1000, 100, 10, and 1 nM. A concentration of DMSO was added to the cultures at 0.5% v/v. […] The OD value was determined by using a microplate reader at 450 nm. Data were expressed as mean ± SEM (n = 3, each n was run in triplicate), with the medium as a control, representing 100% cell viability. […]

Results on 1 molecule are retold here after PMC7999550, “Novel Multifunctional Ascorbic Triazole Derivatives for Amyloidogenic Pathway Inhibition, Anti-Inflammation, and Neuroprotection” (Molecules, 2021).

Usually inhibition stands for the change of the read-out against control, counted positive when it falls. Read a high inhibition as strong suppression. What is called IC50 is the midpoint of a concentration-inhibition curve. Read a low IC50 as greater potency.

SMILES strings stand for the structures.

T2 sequence (P05067 672-713 limits assumed): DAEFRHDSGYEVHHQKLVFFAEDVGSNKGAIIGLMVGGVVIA
T1 sequence (P56817 46-501): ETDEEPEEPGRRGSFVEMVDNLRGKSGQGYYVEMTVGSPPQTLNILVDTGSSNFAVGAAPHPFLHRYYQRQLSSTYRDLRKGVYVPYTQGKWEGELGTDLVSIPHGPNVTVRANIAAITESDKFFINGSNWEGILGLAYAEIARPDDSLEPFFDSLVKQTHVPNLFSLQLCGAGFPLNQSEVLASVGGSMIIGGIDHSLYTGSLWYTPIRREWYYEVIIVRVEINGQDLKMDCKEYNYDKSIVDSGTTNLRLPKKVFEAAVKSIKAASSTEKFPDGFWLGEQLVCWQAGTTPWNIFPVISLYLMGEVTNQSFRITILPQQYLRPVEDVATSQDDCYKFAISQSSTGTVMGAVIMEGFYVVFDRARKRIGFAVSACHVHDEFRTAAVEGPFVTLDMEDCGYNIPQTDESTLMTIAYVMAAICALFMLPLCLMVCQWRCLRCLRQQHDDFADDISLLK

In the case of `O=C1O[C@H]([C@@H](O)COCc2cn(Cc3ccc(O)cc3)nn2)C(O)=C1O` [Compound 2a, (R)-3,4-Dihydroxy-5-((S)-1-hydroxy-2-((1-(4-hydroxybenzyl)-1H-1,2,3-triazol-4-yl)metho-xy)ethyl)furan-2(5H)-one], the inhibition at 400 µM against BACE1 was determined as 6.8 ± 2.69%; against amyloid-β (1-42) peptide (at a concentration of 400 µM, ThT, 48 h, mean ± SEM, n = 3), 53 ± 0.6%. Further, the concentration for half-maximal inhibition (IC50) at amyloid-β (1-42) peptide was determined as 319 µM; in data set [2], 206 µM. Besides, in the data set on P19-derived neurons [1], the “neuroprotective activity compared with quercetin (positive control)” value is “no statistical differences”. Besides, the “Antioxidant %Inhibition (±SEM)” value in data set [2] (at a concentration of 400 µM, mean ± SEM, n = 3) stood at 66.54 ± 0.56 %. Further, the “cytotoxicity / cell viability of P19-derived neurons” value in the data set with P19-derived neurons [3] is on record as “significantly higher viability than 0.5% DMSO”.
